Test results as given in patent US8974830B2, “Particles and contrast agent including the same for optical imaging” (Canon Kabushiki Kaisha, priority 2012, dated 2015).

Test: Accumulation rate in popliteal lymph nodes after subcutaneous plantar administration
Assay type: in vivo, mouse
Details: 24 hours after subcutaneous plantar administration, 13 nmol dye
Procedure: PNP10 prepared in EXAMPLE 10 was administered subcutaneously into the plantar surface of a mouse. Extirpation was performed 24 hours after administration. After homogenization, extraction was performed with an organic solvent to measure the accumulation rate in the popliteal lymph nodes. The amount administered was 13 nmol in terms of the amount of the dye. As a comparative example, an aqueous solution of ICG was also administered, and the accumulation rate was measured. The accumulation rate of PNP10 in the lymph nodes was about 80 times higher than that of ICG.

SMILES: CC1(C)C(/C=C/C=C/C=C/C=C2\N(CCCCS(=O)(=O)O)c3ccc4ccccc4c3C2(C)C)=[N+](CCCCS(=O)(=O)[O-])c2ccc3ccccc3c21 [ICG, Indocyanine green]
- Accumulation rate in lymph node (% ID): 0.1 % ID
